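96-well plates; 48 h exposure; 5 concentrations. Endpoints by linear interpolation between flanking doses. Not reached: highest tested concentration assigned. Definition used: TGI = concentration required for complete inhibition of growth.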
Columns and labels:
Assay in all cases: NCI-60 cell line screen, 48 h
MOLT-4 leukemia = system: MOLT-4 leukemia
SK-OV-3 ovarian = system: SK-OV-3 ovarian
OVCAR-8 ovarian = system: OVCAR-8 ovarian
KM12 colon = system: KM12 colon
UACC-257 melanoma = system: UACC-257 melanoma
MCF7 breast = system: MCF7 breast
MALME-3M melanoma = system: MALME-3M melanoma
SR leukemia = system: SR leukemia
DU-145 prostate = system: DU-145 prostate
U251 CNS = system: U251 CNS
HOP-92 NSCLC = system: HOP-92 NSCLC
NCI-H23 lung = system: NCI-H23 lung
SNB-75 CNS = system: SNB-75 CNS
K-562 leukemia = system: K-562 leukemia
CCRF-CEM leukemia = system: CCRF-CEM leukemia
NCI/ADR-RES ovarian = system: NCI/ADR-RES ovarian
HCT-116 colon = system: HCT-116 colon
PC-3 prostate = system: PC-3 prostate
SW-620 colon = system: SW-620 colon
HCT-15 colon = system: HCT-15 colon

SMILES | TGI (MOLT-4 leukemia) [µM] | TGI (SK-OV-3 ovarian) [µM] | TGI (OVCAR-8 ovarian) [µM] | TGI (KM12 colon) [µM] | TGI (UACC-257 melanoma) [µM] | TGI (MCF7 breast) [µM] | TGI (MALME-3M melanoma) [µM] | TGI (SR leukemia) [µM] | TGI (DU-145 prostate) [µM] | TGI (U251 CNS) [µM] | TGI (HOP-92 NSCLC) [µM] | TGI (NCI-H23 lung) [µM] | TGI (SNB-75 CNS) [µM] | TGI (K-562 leukemia) [µM] | TGI (CCRF-CEM leukemia) [µM] | TGI (NCI/ADR-RES ovarian) [µM] | TGI (HCT-116 colon) [µM] | TGI (PC-3 prostate) [µM] | TGI (SW-620 colon) [µM] | TGI (HCT-15 colon) [µM]
COc1cccc2nc3c(C(=O)NCCN(C)C)cccc3cc12 | 21.2 | 4.94 | 3.07 | 13.6 | 5.01 | 8 | 4.4 | 3.15 | 14.4 | 5.46 | 11.2 | 6.05 | 14.4 | 13.9 | 61.3 | 9.17 | 14.9 | 10.2 | 4.83 | 11.2
CCCC(=O)N1CCN(c2ccc3c(c2)OC(C)O3)CC1 (stereo not given) | > 100 | > 100 | > 100 | > 100 | > 100 | > 100 | > 100 | > 100 | > 100 | > 100 | > 100 | > 100 | > 100 | > 100 | > 100 | > 100 | > 100 | > 100 | > 100 | > 100
Nc1ccccc1N=Cc1cc2cc([N+](=O)[O-])ccc2s1 | 13.6 | 29.7 | 45.7 | > 100 | 51.2 | 23 | 81.7 | > 100 | 36.1 | 28.2 | 55.5 | > 100 | 28.8 | 35.1 | 22.8 | > 100 | > 100 | 30.9 | > 100 | > 100
CC1CN=C(N(C(=O)Nc2ccccc2)c2ccc(Cl)c(Cl)c2)S1 (stereo not given) | > 10 | > 100 | > 100 | > 100 | > 100 | > 100 | > 100 | > 100 | > 100 | > 10 | 52.3 | > 100 | > 100 | > 10 | > 10 | > 100 | > 100 | > 100 | > 100 | > 100
CCOC(=O)/C=C(/C(=O)OCC)n1cnc2c(=O)[nH]c(NC(C)=O)nc21 | > 100 | > 100 | > 100 | > 100 | > 100 | > 100 | > 100 | > 100 | > 100 | > 100 | > 100 | > 100 | > 100 | > 100 | > 100 | > 100 | > 100 | > 100 | > 100 | > 100
O=C(O)CCSC(CC1(c2ccc(Cl)cc2)NC(=O)CCS1)c1ccccc1 (stereo not given) | > 100 | 38 | 39.5 | 14.1 | 49.1 | > 55.3 | 41.6 | > 100 | > 53.8 | 42.2 | 62.2 | 50.1 | 32.3 | > 100 | 24.8 | 49.3 | 17.4 | 37.3 | 41.7 | 32.1

— PubChem BioAssay (NCI)
